Test results as given in the supplement of paper PMC9663587.

Legend:
Assay in all cases: GR value, 72 h; higher = faster growth (1 = untreated, <0 = killing);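 note: breast cancer and non-malignant breast epithelial lines, nine half-log doses, viable cells counted by Hoechst and LIVE/DEAD dye imaging versus time-zero plates and DMSO controls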
[1] = compound: CN1CCN(CC1)C2=CC(=C(C=C2)NC3=NC=C4C(=N3)N(C5=CC=CC=C5C(=O)N4CC(F)(F)F)C)OC [FMF-03-146-1]
[2] = compound: CC1(CCN(CC1)C2=CN=C(C(=N2)N)C3=C(C(=CC=C3)Cl)Cl)N [SHP099]
[3] = compound: Cc1nc(Nc2ncc(C(=O)Nc3c(C)cccc3Cl)s2)cc(N2CCN(CCO)CC2)n1 [Dasatinib]
[4] = compound: C[C@@H]1COCCN1c1cc(C2([S@](C)(=N)=O)CC2)nc(-c2cc[nH]c3nccc2-3)n1 [AZD6738]
[5] = compound: NC1(C(=O)N[C@@H](CCO)c2ccc(Cl)cc2)CCN(c2nc[nH]c3nccc2-3)CC1 [AZD5363]
[6] = compound: CCNC(=O)c1noc(-c2cc(C(C)C)c(O)cc2O)c1-c1ccc(CN2CCOCC2)cc1 [Luminespib/NVP-AUY922]

AU565
GR value ([1]; 0.1 µM): 0.928 GR
GR value ([1]; 0.3162 µM): 0.924 GR
GR value ([1]; 1 µM): 0.874 GR
GR value ([1]; 3.162 µM): 0.894 GR
GR value ([1]; 10 µM): 0.695 GR
GR value ([2]; 0.001 µM): 0.972 GR
GR value ([2]; 0.003162 µM): 0.94 GR
GR value ([2]; 0.01 µM): 0.815 GR
GR value ([2]; 0.03162 µM): 1.07 GR
GR value ([2]; 0.1 µM): 1 GR
GR value ([2]; 0.3162 µM): 0.949 GR
GR value ([2]; 1 µM): 0.925 GR
GR value ([2]; 3.162 µM): 0.932 GR
GR value ([2]; 10 µM): 0.939 GR
GR value ([3]; 0.001 µM): 0.873 GR
GR value ([3]; 0.003162 µM): 0.908 GR
GR value ([3]; 0.01 µM): 0.966 GR
GR value ([3]; 0.03162 µM): 0.961 GR
GR value ([3]; 0.1 µM): 0.877 GR
GR value ([3]; 0.3162 µM): 0.963 GR
GR value ([3]; 1 µM): 0.875 GR
GR value ([3]; 3.162 µM): 0.73 GR
GR value ([3]; 10 µM): 0.274 GR
GR value ([4]; 0.001 µM): 0.973 GR
GR value ([4]; 0.003162 µM): 0.919 GR
GR value ([4]; 0.01 µM): 1.05 GR
GR value ([4]; 0.03162 µM): 1.14 GR
GR value ([4]; 0.1 µM): 1 GR
GR value ([4]; 0.3162 µM): 0.982 GR
GR value ([4]; 1 µM): 0.897 GR
GR value ([4]; 3.162 µM): 1.08 GR
GR value ([4]; 10 µM): 0.281 GR
GR value ([5]; 0.001 µM): 1.15 GR
GR value ([5]; 0.003162 µM): 0.991 GR
GR value ([5]; 0.01 µM): 0.884 GR
GR value ([5]; 0.03162 µM): 0.793 GR
GR value ([5]; 0.1 µM): 0.786 GR
GR value ([5]; 0.3162 µM): 0.717 GR
GR value ([5]; 1 µM): 0.655 GR
GR value ([5]; 3.162 µM): 0.682 GR
GR value ([5]; 10 µM): 0.399 GR
GR value ([6]; 0.0001 µM): 0.887 GR
GR value ([6]; 0.0003162 µM): 0.966 GR
GR value ([6]; 0.001 µM): 0.942 GR
GR value ([6]; 0.003162 µM): 0.648 GR
GR value ([6]; 0.01 µM): 0.165 GR
GR value ([6]; 0.03162 µM): -0.079 GR
GR value ([6]; 0.1 µM): -0.156 GR
GR value ([6]; 0.3162 µM): -0.214 GR
GR value ([6]; 1 µM): -0.227 GR
